Measurements: EP0509845A1, “(+) and (-) enantiomers of 5-aliphatic-6-(benzoxazinyl- or benzothiazinyl)-2,3,4,5-tetrahydropyridazin-3-ones” (ORTHO PHARMACEUTICAL CORPORATION, priority 1991, dated 1992)
Like-named read-outs stand apart in the source and are kept apart here.

Columns and labels:
[1] = tested on: human platelet aggregation; assay: Platelet aggregation in vitro in platelet rich plasma; assay type: cell-based; details: for IC50: human PRP
Procedure: The racemate and enantiomeric Bemoradan were tested for their effects in vitro on human platelet aggregation. Platelet rich plasma (PRP) was prepared from human donors who were free of aspirin for the preceding week. Venous blood was collected in sodium citrate vacutainer tubes and PRP was obtained by centrifuging the blood at l000 rpm for 5 min. Compounds were dissolved in methanol and added to 480 µl of PRP in a Chrono-log dual channel aggregometer l min prior to aggregant. Serotonin at 5 µM or ADP at 2 µM were the aggregating agents.

adult mongrel dogs = assay: Comparative racemate and enantiomer hemodynamic testing in pentobarbital anesthetized open-chest dogs; assay type: in vivo; details: for CO Percent Change from Control: cardiac output; for CO Percent Change from Control / CF Percent Change from Control / HR Percent Change from Control / LVEDP Percent Change from Control / MAP Percent Change from Control / dP/dtmax Percent Change from Control / RAP Percent Change from Control / SV Percent Change from Control / SW Percent Change from Control / TPR Percent Change from Control: anesthetized open-chest dogs; for CF Percent Change from Control: contractile force; for HR Percent Change from Control: heart rate; for LVEDP Percent Change from Control: left ventricular end diastolic pressure; for MAP Percent Change from Control: mean blood pressure; for dP/dtmax Percent Change from Control: peak rate of rise in left ventricular pressure; for RAP Percent Change from Control: right atrial pressure; for SV Percent Change from Control: stroke volume (CO/HR x 1000); for SW Percent Change from Control: stroke work; for TPR Percent Change from Control: total peripheral resistance
Procedure: Adult mongrel dogs weighing approximately l0-l4 kg were anesthetized with sodium pentobarbital (35 mg/kg, i.p.) and artificially respired. A femoral artery was cannulated to measure mean arterial pressure (MAP) and a femoral vein was cannulated for administering compounds. A Millar microtip pressure transducer was placed in the left ventricle via the left carotid artery to measure left ventricular end diastolic pressure (EDP). pressure pulses triggered a cardiotachometer for determination of heart rate (HR) while the left ventricular pressure waveform was differentiated using a Gould differentiating amplifier to yield dP/dtmax, an index of contractility. A right thoractomy was performed at the fourth intercostal space and the pericardial sac was opened. An externally calibrated Walton-Brodie strain gauge arch was sutured to the right ventricular free wall and stretched to produce a baseline force of approximately l00g. Subsequent changes in right ventricular contractile force (CF) were measured from this baseline. A Carolina electromagnetic flow probe was placed on the ascending aorta to estimate cardiac output (CO). A flexible fluid-filled catheter was inserted into the tip of the right atrium to measure right atrial pressure (RAP). Needle electrodes were placed in the appropriate limbs to record a lead II electrocardiogram (ECG). The following formulas were used to calculate derived parameters: Stroke volume (SV) = CO/HR x l000 Stroke work (SW) = ([…]) x SV Total peripheral resistance (TPR) = (MAP-EDP)/CO
Following surgery and stabilization of hemodynamic parameters, an i.v. infusion of dopamine (l0-l5 µg/kg/min for 3 min) was administered with a Harvard infusion pump to assess responsiveness to positive inotropic stimulation. Baseline hemodynamic values were obtained immediately prior to drug infusion. Responses were continuously monitored on a recorder (Gould 2800) and data collection was facilitated by the use of a Buxco cardiovascular analyzer and data logger.
In the comparative testing a stock solution of each enantiomer (l mg/ml) was prepared fresh daily and diluted before use. Compounds were dissolved in a small volume of dimethylformamide (DMF) and diluted with saline for a final concentration of l5% DMF. Further dilutions were made with a l5% DMF solution.
In the comparative testing each compound was administered in cumulative doses to separate dogs. Data were obtained at the end of each dose. (±) Bemoradan and (+) Bemordan were infused at cumulative doses of 5, l5, 35 and 75 µg/kg, administered with a Harvard infusion pump for 5 minutes each at rates of 0.56, l.l, 2.2, and […], respectively. (-) Bemoradan was given at doses of 5, l5 and 35 µg/kg following the same protocol. The high dose of the (-) isomer was not administered as a means of conserving compound.
Hemodynamic results were expressed as the percent change from pre-drug baseline values and compared using a Dunnett's test with a criterion for significance of p < 0.05. Contractile force ED₄₀ values (i.e., the dose which increased contractile force by 40%) were calculated from dose-response regression lines.

Potency Difference (-vs+), Platelet aggregation (IC50) vs. 5-HT (serotonin) ([1]; (-) isomer versus (+) isomer): 16x
Potency Difference (-vs+), Platelet aggregation (IC50) vs. ADP ([1]; (-) isomer versus (+) isomer): 12x
IC50 ([1]; ADP at 2 µM, read-out: Antiaggregatory IC50 (µM) vs. ADP): 0.32 µM
IC50 ([1]; Serotonin at 5 µM, read-out: Antiaggregatory IC50 (µM) vs. 5-HT): 0.5 µM
IC50 ([1]; Table I summary, ADP at 2 µM as aggregant, read-out: Platelet aggregation (IC50) vs. ADP): 0.32 µM
IC50 ([1]; Table I summary, serotonin at 5 µM as aggregant, read-out: Platelet aggregation (IC50) vs. 5-HT (serotonin)): 0.5 µM
SMILES: CC1CC(=O)NN=C1c1ccc2c(c1)OCC(=O)N2 (single isomer, unassigned; isomer 6) [(-) isomer, 6-(3,4-dihydro-3-oxo-l,4(2H)-benzoxazin-7-yl)-2,3,4,5-tetrahydro-5-methyl-pyridazin-3-one]
Potency Difference (-vs+), In vivo inotropic ED40, i.v. (adult mongrel dogs; (-) isomer versus (+) isomer): 7 x
In vivo inotropic ED40, i.v. (adult mongrel dogs; Table I summary, dose increasing contractile force by 40%, dogs, i.v.): 5.7 µg/kg
CO Percent Change from Control (adult mongrel dogs; cumulative i.v. dose 5 µg/kg): 2.9±0.5%
CO Percent Change from Control (adult mongrel dogs; cumulative i.v. dose 15 µg/kg): 0.8±1.9%
CO Percent Change from Control (adult mongrel dogs; cumulative i.v. dose 35 µg/kg): -3.4±2.4%
CF Percent Change from Control (adult mongrel dogs; cumulative i.v. dose 5 µg/kg): 28.3±4.4%
CF Percent Change from Control (adult mongrel dogs; cumulative i.v. dose 15 µg/kg): 119.9±18.8%
CF Percent Change from Control (adult mongrel dogs; cumulative i.v. dose 35 µg/kg): 187.2±28.9%
CF ED40 (µg/kg) with 95% F.L. (adult mongrel dogs; dose causing a 40% increase in contractility above baseline, from dose-response regression lines, i.v. infusion, dogs): 5.7 (2.9 - 8.3) µg/kg
HR Percent Change from Control (adult mongrel dogs; cumulative i.v. dose 5 µg/kg): -3.1±0.5%
HR Percent Change from Control (adult mongrel dogs; cumulative i.v. dose 15 µg/kg): 10.5±1.2%
HR Percent Change from Control (adult mongrel dogs; cumulative i.v. dose 35 µg/kg): 17.1±3.6%
LVEDP Percent Change from Control (adult mongrel dogs; cumulative i.v. dose 5 µg/kg): -10.6±4.4%
LVEDP Percent Change from Control (adult mongrel dogs; cumulative i.v. dose 15 µg/kg): -20.7±5.1%
LVEDP Percent Change from Control (adult mongrel dogs; cumulative i.v. dose 35 µg/kg): -25.1±8.0%
MAP Percent Change from Control (adult mongrel dogs; cumulative i.v. dose 5 µg/kg): -7.4±3.4%
MAP Percent Change from Control (adult mongrel dogs; cumulative i.v. dose 15 µg/kg): -12.8±4.5%
MAP Percent Change from Control (adult mongrel dogs; cumulative i.v. dose 35 µg/kg): -18.7±4.3%
dP/dtmax Percent Change from Control (adult mongrel dogs; cumulative i.v. dose 5 µg/kg): 11.7±5.6%
dP/dtmax Percent Change from Control (adult mongrel dogs; cumulative i.v. dose 15 µg/kg): 41.6±12.3%
dP/dtmax Percent Change from Control (adult mongrel dogs; cumulative i.v. dose 35 µg/kg): 58.0±14.5%
RAP Percent Change from Control (adult mongrel dogs; cumulative i.v. dose 5 µg/kg): 3.8±11.4%
RAP Percent Change from Control (adult mongrel dogs; cumulative i.v. dose 15 µg/kg): -0.9±16.4%
RAP Percent Change from Control (adult mongrel dogs; cumulative i.v. dose 35 µg/kg): -1.4±16.0%
SV Percent Change from Control (adult mongrel dogs; cumulative i.v. dose 5 µg/kg): 0.06±0.9%
SV Percent Change from Control (adult mongrel dogs; cumulative i.v. dose 15 µg/kg): -8.4±1.8%
SV Percent Change from Control (adult mongrel dogs; cumulative i.v. dose 35 µg/kg): -15.2±4.0%
SW Percent Change from Control (adult mongrel dogs; cumulative i.v. dose 5 µg/kg): -7.8±4.2%
SW Percent Change from Control (adult mongrel dogs; cumulative i.v. dose 15 µg/kg): -19.8±6.3%
SW Percent Change from Control (adult mongrel dogs; cumulative i.v. dose 35 µg/kg): -29.7±7.7%
TPR Percent Change from Control (adult mongrel dogs; cumulative i.v. dose 5 µg/kg): -10.2±5.2%
TPR Percent Change from Control (adult mongrel dogs; cumulative i.v. dose 15 µg/kg): -12.8±7.5%
TPR Percent Change from Control (adult mongrel dogs; cumulative i.v. dose 35 µg/kg): -14.9±5.1%
